Experiment [1] deals with LRRK2 G2019S mutant and ZFN-corrected NPCs. In words: ROS production by CM-H2DCFDA fluorescence, flow cytometry. Type of experiment: cell-based, human. Particulars: 200 μM for 60 min, normal growth conditions, both cell lines. The procedure: Cells were assayed for free radical production using CM-H2DCFDA that can be oxidized and rendered fluorescent by hydroxyl radicals produced by mitochondria. See, e.g., Petronilli et al. (1999) Biophysical journal 76:725-734; Nicholls (2009) Biochimica et biophysica acta 1787:1416-1424. Cytoplasmic fluorescence of this indicator dye in viable cells was assayed by flow cytometry to obtain a signature for cellular oxidative stress.
In particular, for stress experiments, NPCs were seeded 24 hours before being cultured under the following selective media conditions for an additional 18 hours: Standard NPC growth medium as above (HG=high glucose), HG plus 20 μM rotenone (HG+R) (SIGMA # R-8875) or an NPC growth medium formulation based on HG medium without glucose (NG, Life Techn. Neurobasal-A, Formula 05-0128DJ).
For flow cytometry, NPCs were seeded at 80% confluence on either 24-well (1-2×10^5 cells) or 48 well plates (5×10^4 cells) (NUNC #s 142475, 150687) on Geltrex (100 ug/ml protein) coated plates 24 hours before the experiment and then challenged as described above. In general two replicate wells were analyzed in each experimental run. After the respective treatment, cells were sampled by flow cytometry with an Accuri™ C6 cytometer with C-Sampler™ (BD Accuri) and subsequently analyzed using the Cflow® analysis software. […]
Background: A flow cytometer gives signals particle by particle.

Experiment [2] has as its system LRRK2 mutant and ZFN-corrected NPCs. Description: Mitochondrial calcein retention (MTP opening), HCI microscopy. The format is cell-based, human. Particulars: rotenone stress, corrected and LRRK2 mutant lines. The procedure: Cells grown on high glucose (HG) with or without 20 uM rotenone (R) or with radical generator TBHP (200 uM). Cells were analyzed by flow cytometry and mean CM-DCFDA fluorescence (Ex./Em. 495/529 nm) of live cells was then normalized to number of viable cells. […] Images: Depicted are representative image overlays showing mitochondrial fluorescence patterns indicative of mitochondrial membrane potential for the corrected (1.7) and uncorrected (1.13) NPCs. […] Mitochondria were loaded with calcein AM and cytosolic fluorescence was quenched by CoCl2. Graph: Relative amount of mitochondrial localized calcein fluorescence identified by Mitotracker™ Red CMXROS co-localization was normalized to cell number. Images: Representative image overlays showing mitochondrial fluorescence patterns indicative of mitochondrial calcein retention and mitochondrial integrity in corrected (1.7) and uncorrected (1.13) NPCs. FIG. 4D is a graph showing HCI analysis of caspase 3/7 activation in LRRK2 NPCs measured by fluorescence activated by caspase 3/7 mediated cleavage of a DEVD peptide-DNA dye conjugate. NPCs were incubated with the caspase substrate and the % of caspase substrate fluorescence positive cells (identified by nuclear Hoechst 33342 counterstain) was determined from 4 sites acquired at 10× magnification. […]

As to `CC(C)(C)OO` [TBHP], the “ROS response to radical generator” value in experiment [1] is reported as “increase of ROS”.
As for `C=C(C)[C@H]1Cc2c(ccc3c2O[C@@H]2COc4cc(OC)c(OC)cc4[C@@H]2C3=O)O1` [rotenone], the mitochondrial calcein loading result in experiment [2] is “increased mitochondrial calcein loading”.

These data come from US20160010154A1, “SCREENING ASSAYS FOR THERAPEUTICS FOR PARKINSON'S DISEASE” (THE PARKINSON'S INSTITUTE, priority 2012, published 2016).
